Results on one substance are retold here after patent publication US20050124594A1, “Method of treatment” (priority 1998, published 2005).

For series [1], the system named is choroidal neovascularisation (CNV). Kind of series: Case report: prophylactic triamcinolone to the orbital floor at cataract surgery in a high risk eye. Format: in vivo, human. From the text:
A patient in whom prophylactic treatment was used was a person. There was marked macula degeneration in both eyes. They underwent cataract surgery late in July 1995 and developed neovascularisation of the right macula within three weeks. They also had cataract in the left eye but surgery was deferred for fear of developing the same complication. In the left macula there were greater than 5 drusen, some of them larger than 500 μm, and coarse pigment clumping, all high risk features. The cataract in the left eye continued to advance. By August 1997 it was very dense, reducing the visual acuity to 6/24. In spite of the high risk of neovascularisation, they underwent surgery in October 1997. As a prophylactic measure to reduce the risk of subsequent CNV, they received 40 mg of triamcinolone to the orbital floor beneath the eye at the time of surgery. The visual acuity improved to 6/12. They progressed well until June 1998 when they developed left CNV. By this time the effect of the triamcinolone had worn off.

Series [2] deals with choroidal neovascularisation in age-related macular degeneration. Conditions: introduced into the vitreous; cited from earlier work.
The nature of series [3]: Clinical observations of side effects of intravitreal triamcinolone. Format: in vivo, human. From the text: Intravitreal triamcinolone presents a manageable side effect profile. Of the several hundred patients treated through the Sydney Eye Hospital over the last three years, no case of endophthalmitis, retinal detachment or vitreous haemorrhage has been reported. The commonest side effect is a modest elevation of the intraocular pressure of around 5 mmHg. This has been controlled with glaucoma medication where necessary, although if the optic nerve is not compromised and the pressure is less than 25 mmHg it is often reasonable to observe without treatment. The pressure invariably returns to normal after the drug wears off, which is usually after approximately 6 months.

For series [4], the system named is choroidal neovascularisation (CNV). Description: Illustrative case: intravitreal steroid treatment for the prevention of neovascularisation in a patient at high risk. Format: in vivo, human. The protocol: This case illustrates how intravitreal steroid treatment might be used to prevent CNV in a high risk eye.
A patient presents with recent loss of vision in their right eye. Retinal haemorrhages and exudation are seen in the right macula. […] This is treated on its merits, but the patient is already legally blind (visual acuity less than 6/60) and likely to remain so.
The patient is otherwise healthy and looks as if they might well live another ten or twenty years.
It is explained to the patient that it has been well shown that the risk of developing neovascularisation in their left eye is roughly 90% over the next five years. Should this occur, the chance of saving reading and driving vision with conventional treatments would be less than 25%. The patient is informed that, since the formation of new blood vessels appears in this disease to be linked to chronic, low grade inflammation inside the eye, we believe that an injection of steroid into the eye may reduce the risk of developing neovascularisation in their left eye. […] Serious side effects of the injection are rare. The patient returns in one week, having considered their options, and elects to receive the treatment.
The patient's left eye is anaesthetised and sterilised with topical medications. An injection into the vitreous of 4 mg of triamcinolone (0.1 mL of a 40 mg/mL solution) is performed. The patient is reviewed at 1 and 6 weeks after the injection, then at 3, 6 and 12 months. […] A second injection of triamcinolone is instilled, with the patients consent, and they are reviewed with the same frequency as after the first injection. Two years after the first injection the patient's visual acuity remains 6/9. Further treatments are deferred and the patient is reviewed every 6 months.

Where [5] appears, read: 12 months after intravitreal injection of 4 mg.

As for “9-fluoro-11,21-dihydroxy-16,17-[1-(methylethylidine)bis (oxy)]pregna-1,4-diene-3,20-dione [triamcinolone]”, the “formation of CNV after surgery” value in series [1] (40 mg to the orbital floor October 1997, left CNV developed June 1998) is “delayed the formation of CNV after surgery”. In addition, the “visual acuity after cataract surgery” value in series [1] (person, left eye, 40 mg to the orbital floor at surgery, acuity 6/24 before surgery) is recorded as 6/12. Moreover, in series [2], the exudation entry is “control and resorbtion of exudation”; the “resident immune cell activity” value is “modulates the resident immune cell activity”; the visual acuity entry is “improved visual acuity”. The “cataract in the treated eye” value in series [3] (follow-up to 18 months) was “this has not been a problem”. Also, in series [3] (intravitreal), the “elevation of the intraocular pressure (commonest side effect)” value is recorded as “around 5 mmHg”. Besides, the “endophthalmitis, retinal detachment or vitreous haemorrhage” value in series [3] (several hundred patients treated intravitreally over three years) is recorded as “no case”. In addition, in series [4] (setting [5]), the “complications of the procedure” value is “no complications of the procedure have ensued” and the evidence of neovascularisation result is given as “without evidence clinically or angiographically of neovascularisation”. Moreover, the visual acuity in series [4] (12 months after intravitreal injection of 4 mg, baseline 6/9) is 6/9. Further, the visual acuity in series [4] (two years after the first injection, second injection at 12 months) is listed as 6/9.
